In patent US5104869A, “Renin inhibitors” (American Cyanamid Company, priority 1990, dated 1992) one finds IC50 data, which are given here for 23 molecules.

In the assay the target is T1, human kidney renin (Homo sapiens, UniProt P00797).
T1 construct: Human renin was prepared from human kidney; from tissue; host or cells: human kidney
T1 sequence (P00797 67-406): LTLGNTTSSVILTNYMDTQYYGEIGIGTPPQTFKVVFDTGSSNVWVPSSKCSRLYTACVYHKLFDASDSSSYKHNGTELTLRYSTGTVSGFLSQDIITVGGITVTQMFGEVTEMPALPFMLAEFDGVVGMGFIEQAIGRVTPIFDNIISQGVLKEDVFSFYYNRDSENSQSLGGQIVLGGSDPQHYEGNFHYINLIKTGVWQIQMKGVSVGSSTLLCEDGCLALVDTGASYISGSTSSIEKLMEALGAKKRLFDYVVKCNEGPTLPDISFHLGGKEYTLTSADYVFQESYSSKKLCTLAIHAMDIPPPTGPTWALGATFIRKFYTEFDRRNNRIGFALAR
The assay is described as follows: Radioimmunoassay Screen for Renin Inhibitors (in vitro angiotensin I generation, quantitated by radioimmunoassay). As to conditions: purified human plasma angiotensinogen, pH 6.0, one hour at 37° C., read-out: Renin Inhibiton IC50. Type of assay: biochemical. How it is done:
The in vitro method for the screening of anti-renin compounds involves, first, angiotensin I generation, and second, the quantitation of the angiotensin I produced by radioimmunoassay.
The incubation medium consisted of 20 μl of purified human plasma angiotensinogen (1); 10 μl of human kidney renin (2); 5 μl of phenylmethylsulfonyl fluoride; 10 μl of disodium EDTA (10 mM); 10 μl of antirenin compound (5×10^-3, 5×10^-4, 5×10^-5) in dimethylformamide, or ethanol and a suitable amount of maleate buffer (77 mM, pH 6.0) to make a final volume of 500 μl. The reaction mixture was incubated for one hour at 37° C. and the enzymatic reaction was stopped by placing the tube in ice-cold water. The angiotensin I generated during the incubation was measured by a radioimmunoassay plasma renin activity kit (Clinical Assays, Inc.).
The incubation medium consisted of either 100 μl aliquots of the above reaction mixture or a standard amount of angiotensin I; 1000 μl of phosphate buffer (100 mM, pH 7.6) and 100 μl of (^125 I)angiotensinin a gamma-coat, tube. After three hours of incubation at room temperature, the tubes were decanted, and the radioactivity of each tube was determined in a gamma counter. Duplicate determinations were performed for each incubation. The results were expressed in ng of angiotensin I generated per ml of generation medium per hour of incubation (ng/AI/ml/hr).
(1) The human plasma angiotensinogen derived from the blood of a person receiving oral contraceptive pills was purified by chromatography on a pepstatinaminohexyl-agarose column.
(2) Human renin was prepared from human kidney.

Broadly, the IC50 is the concentration that inhibits the measured activity by half.

With `CC(C)C[C@H](NC(=O)[C@@H](CC(=O)N1CCOCC1)Cc1ccccc1)C(=O)N[C@@H](CC(C)C)[C@@H](O)c1nccs1`, the half-inhibitory concentration (IC50) was determined as 42 µM.

Turning to `CC(C)C[C@H](NC(=O)[C@@H](CC(=O)OC(C)(C)C)Cc1ccccc1)C(=O)N[C@@H](CC1CCCCC1)[C@@H](O)c1nccs1`, the IC50 amounted to 0.16 µM.

In the case of `O=C(C[C@@H](Cc1cccc2ccccc12)C(=O)N[C@@H](Cc1cnc[nH]1)C(=O)N[C@@H](CC1CCCCC1)[C@@H](O)c1nccs1)NCCOc1ccccn1`, the IC50 turned out to be 0.58 µM.

With `CC(C)C[C@H](NC(=O)[C@H](Cc1ccccc1)OC(=O)N1CCSCC1)C(=O)N[C@@H](CC1CCCCC1)[C@@H](O)c1cccs1`, the IC50 came out at 0.5 µM.

With `CC(C)C[C@H](NC(=O)[C@@H](CC(=O)N1CCOCC1)Cc1cccc2ccccc12)C(=O)N[C@@H](CC(C)C)[C@@H](O)c1nccs1`, the IC50 was 0.25 µM.

`CC(C)C[C@H](NC(=O)[C@@H](CC(=O)O)Cc1cccc2ccccc12)C(=O)N[C@@H](CC1CCCCC1)[C@@H](O)c1ccccn1`: the IC50 was 3.8 µM.

As to `CC(C)C[C@H](NC(=O)[C@H](Cc1ccccc1)OC(=O)N1CCOCC1)C(=O)N[C@@H](CC1CCCCC1)[C@@H](O)c1cccs1`, the concentration for half-maximal inhibition (IC50) came out at 0.27 µM.

For `CC(C)C[C@H](NC(=O)[C@@H](CC(=O)NCCN1CCOCC1)Cc1cccc2ccccc12)C(=O)N[C@@H](CC(C)C)[C@@H](O)c1nccs1`, the IC50 was 0.4 µM.

For `CC(C)C[C@H](NC(=O)[C@@H](CC(=O)N1CCOCC1)Cc1cccc2ccccc12)C(=O)N[C@@H](CC1CCCCC1)[C@@H](O)c1ccco1`, the IC50 was 0.0088 µM.

Regarding `CC(C)C[C@H](NC(=O)[C@H](Cc1ccccc1)OC(=O)N1CCSCC1)C(=O)N[C@@H](CC1CCCCC1)[C@@H](O)c1ccco1`, the IC50 came to 0.047 µM.

With `CC(C)C[C@H](NC(=O)[C@@H](CC(=O)NCCOc1ccccn1)Cc1cccc2ccccc12)C(=O)N[C@@H](CC1CCCCC1)[C@@H](O)c1ccccn1`, the IC50 worked out at 0.17 µM.

`CC(C)C[C@H](NC(=O)[C@@H](CC(=O)N1CCOCC1)Cc1cccc2ccccc12)C(=O)N[C@@H](CC1CCCCC1)[C@@H](O)c1ccccn1`: the IC50 is 0.077 µM.

With `CC(C)C[C@H](NC(=O)[C@H](Cc1ccccc1)OC(=O)N1CCOCC1)C(=O)N[C@@H](CC1CCCCC1)[C@@H](O)c1ccco1`, the IC50 turned out to be 0.1 µM.

As to `CC(C)C[C@H](NC(=O)[C@H](Cc1ccccc1)OC(=O)N1CCSCC1)C(=O)N[C@@H](CC1CCCCC1)[C@@H](O)c1ccccn1`, the IC50 came to 0.84 µM.

Consider `CC(C)C[C@H](NC(=O)[C@@H](CC(=O)NCCCN1CCOCC1)Cc1cccc2ccccc12)C(=O)N[C@@H](CC(C)C)[C@@H](O)c1nccs1`, for which the half-maximal inhibitory concentration (IC50) was found to be 0.44 µM.

Consider `CC(C)C[C@H](NC(=O)[C@@H](CC(=O)NCCc1ccccc1)Cc1cccc2ccccc12)C(=O)N[C@@H](CC(C)C)[C@@H](O)c1nccs1`, for which the half-inhibitory concentration (IC50) came to 0.73 µM.

Take `CC(C)C[C@H](NC(=O)[C@H](Cc1ccccc1)OC(=O)N1CCOCC1)C(=O)N[C@@H](CC1CCCCC1)[C@@H](O)c1ccccn1`: the IC50 stood at 0.77 µM.

In the case of `COCCNC(=O)O[C@@H](Cc1ccccc1)C(=O)N[C@@H](CC(C)C)C(=O)N[C@@H](CC1CCCCC1)[C@@H](O)c1ccco1`, the IC50 is 1.7 µM.

`CC(C)(C)OC(=O)C[C@@H](Cc1cccc2ccccc12)C(=O)N[C@@H](Cc1cnc[nH]1)C(=O)N[C@@H](CC1CCCCC1)[C@@H](O)c1nccs1`: the IC50 was found to be 0.3 µM.

On to `COC(CNC(=O)C[C@@H](Cc1cccc2ccccc12)C(=O)N[C@@H](CC(C)C)C(=O)N[C@@H](CC(C)C)[C@@H](O)c1nccs1)OC`, for which the IC50 worked out at 0.41 µM.

For the molecule `CC(C)C[C@H](NC(=O)[C@H](Cc1ccccc1)OC(=O)N1CCNC(=O)C1)C(=O)N[C@@H](CC1CCCCC1)[C@@H](O)c1ccco1`, the IC50 turned out to be 0.00019 µM.

For `CC(C)C[C@H](NC(=O)[C@@H](CC(=O)NCCN1CCCC1)Cc1cccc2ccccc12)C(=O)N[C@@H](CC(C)C)[C@@H](O)c1nccs1`, the IC50 was 0.74 µM.

As to `CC(C)C[C@H](NC(=O)[C@@H](CC(=O)OC(C)(C)C)Cc1ccccc1)C(=O)N[C@@H](CC(C)C)[C@@H](O)c1nccs1`, the IC50 came to 6.5 µM.
